From patent US11406645B2, “Acetamide thienotriazolodiazepines and uses thereof” (Dana-Farber Cancer Institute, Inc., priority 2015, dated 2022)

Assay: Pharmacokinetics in male CD1 mice, oral administration (whole blood)
Details: oral 10 mg/kg, N=3, whole blood
Procedure: Pharmacokinetic parameters were determined by administration of a candidate bromodomain inhibitor to male CD1 mice. Intravenous doses were delivered at 5 mg/kg, and oral doses at 10 mg/kg (N=3). […] The compound concentration in mouse blood was monitored over 24-hour time period to check the compound concentration in blood at 5 min, 30 min, 1 hour, 2 hours, 6 hours, 12 hours, and 24 hour via a series bleeding.

| SMILES | Tmax [min] |
| --- | --- |
| Cc1sc2c(c1C)C(c1ccc(Cl)cc1)=N[C@@H](CC(=O)OC(C)(C)C)c1nnc(C)n1-2 [JQ1] | 15 |

Assay: not given
Details: male, CD1, mouse, in vivo

| SMILES | F [%] |
| --- | --- |
| Cc1sc2c(c1C)C(c1ccc(Cl)cc1)=N[C@@H](CC(=O)NCC1CCN(CCN(C)C)CC1)c1nnc(C)n1-2 [Compound 601] | 4 |
| Cc1sc2c(c1C)C(c1ccc(Cl)cc1)=N[C@@H](CC(=O)NCCCN1CCCC1)c1nnc(C)n1-2 [Compound 604] | 7 |
| Cc1sc2c(c1C)C(c1ccc(Cl)cc1)=N[C@@H](CC(=O)N1CCn3c(nnc3C(F)(F)F)C1)c1nnc(C)n1-2 [Compound 605] | 6 |
| Cc1sc2c(c1C)C(c1ccc(Cl)cc1)=N[C@@H](CC(=O)N1CCC(N3CCCCC3)CC1)c1nnc(C)n1-2 [Compound 603] | 20 |
| Cc1sc2c(c1C)C(c1ccc(Cl)cc1)=N[C@@H](CC(=O)NCCCN1CCC(N3CCCCC3)CC1)c1nnc(C)n1-2 [Compound 602] | 2 |
